Data taken from patent US20240034724A1, “THERAPEUTIC COMPOUNDS USEFUL FOR THE PROPHYLACTIC OR THERAPEUTIC TREATMENT OF AN HIV VIRUS INFECTION” (Gilead Sciences, Inc., priority 2022, published 2024).

What was measured:
[1] = tested on: HIV-1 (IIIb strain); experiment: Test A: Antiviral Assay in the Human MT-4 T-Lymphoblastoid Cell Line; assay type: cell-based; conditions: Human immunodeficiency virus 1, MT4, 120 h; MT-4 cells infected with HIV-1 IIIb, 5 days, CellTiter-Glo, protection from virus-induced cell death
Procedure: Test A: Antiviral Assay in the Human MT-4 T-Lymphoblastoid Cell Line
(§1) For the MT-4 antiviral assay, 50 μL of 3-fold serially diluted compound in complete RPMI medium was added to each well of a 384-well plate (10 concentrations) in quadruplicate. MT-4 cells were infected with HIV-1 (IIIb strain) at a multiplicity of infection (m.o.i.) of ˜0.005 for 1 hour at 37° C. and 20 μL of virus/cell mixture (˜2,000 cells) was added to each well of the assay plate containing 50 μL of diluted compound. A positive control (1 μM azidothymidine, AZT) and a negative control (dimethyl sulfoxide, DMSO) were included in every assay plate to define 100% and 0% protection, respectively. The final DMSO concentration in the assay was 0.5%. The plates were then incubated at 37° C. for 5 days. At the end of the incubation, 30 μL of CellTiter-Glo reagent (Promega Madison, WI) was added to each well of the assay plates. Cell lysis was carried out by incubating the assay plates at room temperature for 10 minutes followed by the quantification of chemiluminescence signal using an EnVision plate reader (Perkin Elmer, Shelton, CT). Antiviral dose response data were normalized to positive and negative controls in each plate and analyzed by curve fitting after conversion of the data to % cell death to determine the half-maximal effective concentration (EC50) value, defined as the compound concentration that caused a 50% protection from cytopathic effect (CPE)-dependent virus-induced cell death.

[2] = Test B: Cytotoxicity Assay in MT-4 Cells; assay type: cell-based; conditions: human, uninfected MT-4 cells, CellTiter-Glo
Procedure: as §1, with “death. Test B: Cytotoxicity Assay in MT-4 Cells Compound cytotoxicity and the corresponding half-maximal cytotoxicity concentration (CC50) values was determined using the same protocol as described in the antiviral assay (Test A) except that uninfected cells were used and the data were normalized to the 100% viability control (DMSO) wells on each plate.” for “death.”

Row | Compound | EC50 [1] [nM] | CC50 at 5 days [2] [nM]
1 | CN(c1nn(CC(F)(F)F)c2c(-c3ccc(C#CC(C)(C)S(C)(=O)=O)nc3[C@H](Cc3cc(F)cc(F)c3)NC(=O)Cn3nc(C(F)(F)F)c4c3C(F)(F)[C@@H]3C[C@H]43)ccc(Cl)c12)S(C)(=O)=O [Example 4, N—((S)-1-(3-(4-chloro-3-(N-methylmethylsulfonamido)-1-(2,2,2-trifluoroethyl)-1H-indazol-7-yl)-6-(3-methyl-3-(methylsulfonyl)but-1-yn-1-yl)pyridin-2-yl)-2-(3,5-difluorophenyl)ethyl)-2-((3bS,4aR)-5,5-difluoro-3-(trifluoromethyl)-3b,4,4a,5-tetrahydro-1H-cyclopropa[3,4]cyclopenta[1,2-c]pyrazol-1-yl)acetamide] | 8.3 | > 50000
2 | C=C(C)C#Cc1ccc(-c2ccc(Cl)c3c(NS(C)(=O)=O)nn(CC(F)(F)F)c23)c([C@H](Cc2cc(F)cc(F)c2)NC(=O)Cn2nc(C(F)(F)F)c3c2C(F)(F)[C@@H]2C[C@H]32)n1 [Example 2, N—((S)-1-(3-(4-chloro-3-(methylsulfonamido)-1-(2,2,2-trifluoroethyl)-1H-indazol-7-yl)-6-(3-methylbut-3-en-1-yn-1-yl)pyridin-2-yl)-2-(3,5-difluorophenyl)ethyl)-2-((3bS,4aR)-5,5-difluoro-3-(trifluoromethyl)-3b,4,4a,5-tetrahydro-1H-cyclopropa[3,4]cyclopenta[1,2-c]pyrazol-1-yl)acetamide] | 18 | 8740
3 | CC(C)(O)C#Cc1ccc(-c2ccc(Cl)c3c(NS(C)(=O)=O)nn(CC(F)(F)F)c23)c([C@H](Cc2cc(F)cc(F)c2)NC(=O)Cn2nc(C(F)(F)F)c3c2C(F)(F)[C@@H]2C[C@H]32)n1 [Example 1, N—((S)-1-(3-(4-chloro-3-(methylsulfonamido)-1-(2,2,2-trifluoroethyl)-1H-indazol-7-yl)-6-(3-hydroxy-3-methylbut-1-yn-1-yl)pyridin-2-yl)-2-(3,5-difluorophenyl)ethyl)-2-((3bS,4aR)-5,5-difluoro-3-(trifluoromethyl)-3b,4,4a,5-tetrahydro-1H-cyclopropa[3,4]cyclopenta[1,2-c]pyrazol-1-yl)acetamide] | 0.34 | 3610
4 | CC(C)(C#Cc1ccc(-c2cccc3c(NS(C)(=O)=O)nn(CC(F)(F)F)c23)c([C@H](Cc2cc(F)cc(F)c2)NC(=O)Cn2nc(C(F)(F)F)c3c2C(F)(F)[C@@H]2C[C@H]32)n1)S(C)(=O)=O [Example 5, 2-((3bS,4aR)-5,5-difluoro-3-(trifluoromethyl)-3b,4,4a,5-tetrahydro-1H-cyclopropa[3,4]cyclopenta[1,2-c]pyrazol-1-yl)-N—((S)-2-(3,5-difluorophenyl)-1-(6-(3-methyl-3-(methylsulfonyl)but-1-yn-1-yl)-3-(3-(methylsulfonamido)-1-(2,2,2-trifluoroethyl)-1H-indazol-7-yl)pyridin-2-yl)ethyl)acetamide] | 0.07 | 9480
5 | CCN(c1nn(CC(F)(F)F)c2c(-c3ccc(C#CC(C)(C)S(C)(=O)=O)nc3[C@H](Cc3cc(F)cc(F)c3)NC(=O)Cn3nc(C(F)(F)F)c4c3C(F)(F)[C@@H]3C[C@H]43)ccc(Cl)c12)S(C)(=O)=O [Example 6, N—((S)-1-(3-(4-chloro-3-(N-ethylmethylsulfonamido)-1-(2,2,2-trifluoroethyl)-1H-indazol-7-yl)-6-(3-methyl-3-(methylsulfonyl)but-1-yn-1-yl)pyridin-2-yl)-2-(3,5-difluorophenyl)ethyl)-2-((3bS,4aR)-5,5-difluoro-3-(trifluoromethyl)-3b,4,4a,5-tetrahydro-1H-cyclopropa[3,4]cyclopenta[1,2-c]pyrazol-1-yl)acetamide] | 3.3 | > 50000
6 | CC(C)C#Cc1ccc(-c2ccc(Cl)c3c(NS(C)(=O)=O)nn(CC(F)(F)F)c23)c([C@H](Cc2cc(F)cc(F)c2)NC(=O)Cn2nc(C(F)(F)F)c3c2C(F)(F)[C@@H]2C[C@H]32)n1 [Example 3, N—((S)-1-(3-(4-chloro-3-(methylsulfonamido)-1-(2,2,2-trifluoroethyl)-1H-indazol-7-yl)-6-(3-methylbut-1-yn-1-yl)pyridin-2-yl)-2-(3,5-difluorophenyl)ethyl)-2-((3bS,4aR)-5,5-difluoro-3-(trifluoromethyl)-3b,4,4a,5-tetrahydro-1H-cyclopropa[3,4]cyclopenta[1,2-c]pyrazol-1-yl)acetamide] | 21 | 7500
